Here are results for 1 compound from US11103510B2, “JAK1 pathway inhibitors for the treatment of cytokine-related disorders” (Incyte Corporation, priority 2018, dated 2021).

For experiment [1], the system named is anti-CD3 antibody-induced cytokine release syndrome (CRS) in BALB/c mice. As to the kind of experiment: Anti-CD3 antibody-induced cytokine release syndrome in BALB/c mice. Format: in vivo. As to conditions: 60 and 120 mg/kg PO 1 h before anti-CD3 (10 μg IV); plasma 1.5 h after anti-CD3; FIG. 1. From the text:
JAK1 pathway inhibitors can be tested for efficacy against CRS according to an in vivo assay described in Ferran, C. et al. Clin. Exp. Immunol. 1991, 86, 537-543. Specifically, this study can test the ability of a compound to reduce or ameliorate anti-CD3 antibody-induced cytokine release syndrome (CRS) in BALB/c mice. The antibody, clone 145-2C11, is an immunoglobin G (IgG) hamster MoAb that is specific for the ε chain of the CD3 murine molecule (Léo, O. et al., Proc. Natl. Acad. Sci. USA, 1987, […], 1374). Treatment with 145-2C11 induces high affinity IL-2 receptors at the surface of spleen T-cells and results in a release of some cytokines such as tumor necrosis factor (TNF-α), IL-2, IL-3, IL-6, and interferon-gamma (IFN-γ) (Ferran, et al. Eur. J. Immunol. 1990, 20, 509-515 and Algre, M. et al., Eur. J. Immunol., 1990, 707). […]
The main objective of this study was to test the ability of a JAK1 pathway inhibitor (e.g., Compound 1) to reduce or ameliorate anti-CD3 antibody-induced cytokine release syndrome (CRS) in BALB/c mice. […] Animals were weighed prior to test article dosing, and monitored for the duration of the experiment. […]
After the administration of the anti-CD3 antibody, animals were closely monitored for signs of distress due to the resulting systemic inflammatory response. […]

Experiment [2] has as its system Con A-induced cytokine release syndrome (CRS) in BALB/c mice. As to the kind of experiment: Concanavalin A induced cytokine release syndrome in BALB/c mice. Format: in vivo. The following applies: plasma 2 h after Con A. From the text: Concanavalin A (Con A) is a selective T lymphocyte mitogen resulting in broad inflammatory cytokine release and proliferation of CD4 and CD8 T-cells. Injection of Con-A has been shown in the literature to induce cytokine release syndrome and serves as a model with which to test the efficacy of cytokine release syndrome therapies (Gantner, F. at al. Hepatology, 1995, 21, 190-198). The mitogen response is dependent on expression of the T-cell receptor.
In particular, this study tests the ability of a selective JAK1 inhibitor (e.g., Compound 1, Table 1) to reduce or ameliorate Con A-induced cytokine release syndrome (CRS) in BALB/c mice. A total of forty (40) BALB/c mice were used for this one day study. Animals were weighed prior to test article dosing, and monitored for the duration of the experiment. On day 0, Sixty (60) minutes prior to Con A administration, vehicle (0.5% methylcellulose) or Compound 1 (60 and 120 mg/kg) was given in a single dose via oral gavage (PO) to animals in groups 2-4 as detailed in Table 2A. Group 1 served as naïve controls and were not treated. Following the […] pre-treatment with vehicle or Compound 1, animals in Groups 2-4 were administered 20 mg/kg of Con A via intravenous injection (IV) in order to induce CRS. All animals were euthanized via CO2 inhalation two hours after Con A administration. Whole blood was collected via cardiac puncture into K2EDTA tubes and stored on ice until plasma processing occurs. Plasma was collected and stored at −80° C. until cytokine multiplex was performed.
Animals were weighed and Con-A dose (20 mg/kg) calculated.
Vehicle and Compound 1 were prepared at corresponding doses.
On day 0, animals were dosed with vehicle or Compound 1, as in Table 2A. Group 1 served as the naïve controls and were not treated. Group 2 received a single dose of vehicle (0.5% methylcellulose) via PO at 0.1 mL/20 g. Group 3 received a single dose of 60 mg/kg Compound 1 via PO at 0.1 mL/20 g. Group 4 received a single dose of 120 mg/kg Compound 1 via PO at 0.1 mL/20 g.
Sixty (60) minutes after test article administration, Con-A was administered via IV injection to Groups 2-4. Each animal in Groups 2-4 received 20 mg/kg of Con-A in 0.2 mL.
After the administration of Con-A, animals were closely monitored for signs of distress due to the resulting systemic inflammatory response.
Two hours after Con-A administration all animals were euthanized by CO2 inhalation.
Upon sacrifice, whole blood was collected from each animal via cardiac puncture into K2EDTA tubes. The blood was centrifuged and the plasma collected in cryovials. The plasma was frozen and stored at −80° C. for the downstream cytokine multiplex assay.
Plasma samples are thawed on ice and used for a cytokine multiplex according to the manufacturer's protocol (ThermoFisher).
An unpaired one-way analysis of variance (ANOVA) incorporating Sidak's multiple test comparison was performed using GraphPad Prism (version 4.00; GraphPad Software, San Diego Calif., USA). A value of p<0.05 was considered significant.

Experiment [3] has as its target human JAK1 (a.a. 837-1142) (Homo sapiens, UniProt P23458). Nature of the experiment: In vitro JAK kinase assay (HTRF), JAK1. Format: biochemical. As to conditions: 1 mM ATP.
Experimental: (§1) The catalytic activity of JAK1, JAK2 or JAK3 was assayed by measuring the phosphorylation of a biotinylated peptide. The phosphorylated peptide was detected by homogenous time resolved fluorescence (HTRF). […] Reactions are carried out at room temperature for 1 hour and then stopped with 20 μL 45 mM EDTA, 300 nM SA-APC, 6 nM Eu-Py20 in assay buffer (Perkin Elmer, Boston, Mass.). Binding to the Europium labeled antibody takes place for 40 minutes and HTRF signal was measured on a Fusion plate reader (Perkin Elmer, Boston, Mass.).
For experiment [4], the target named is human JAK2 (a.a. 828-1132) (Homo sapiens (Human), UniProt O60674). As to the kind of experiment: In vitro JAK kinase assay (HTRF), JAK2, for JAK2/JAK1 ratio. Format: biochemical. As to conditions: IC50 ratio, 1 mM ATP.
Experimental: as §1

Molecules are shown by their SMILES.

Sequence of human JAK2 (a.a. 828-1132) (O60674 828-1132): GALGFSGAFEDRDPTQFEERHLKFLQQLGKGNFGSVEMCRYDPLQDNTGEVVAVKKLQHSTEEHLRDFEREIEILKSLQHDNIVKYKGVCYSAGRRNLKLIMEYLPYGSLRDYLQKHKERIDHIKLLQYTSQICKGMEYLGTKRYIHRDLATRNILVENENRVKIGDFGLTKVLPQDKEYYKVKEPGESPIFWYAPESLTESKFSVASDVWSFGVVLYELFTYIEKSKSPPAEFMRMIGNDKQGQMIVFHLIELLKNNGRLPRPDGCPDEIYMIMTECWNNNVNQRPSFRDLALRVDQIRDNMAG

Consider `N#CCC1(n2cc(-c3ncnc4[nH]ccc34)cn2)CN(C2CCN(C(=O)c3ccnc(C(F)(F)F)c3F)CC2)C1` [Compound 1, {1-{1-[3-Fluoro-2-(trifluoromethyl)isonicotinoyl]piperidin-4-yl}-3-[4-(7H-pyrrolo[2,3-d]pyrimidin-4-yl)-1H-pyrazol-1-yl]azetidin-3-yl}acetonitrile], for which the “IL-6 concentrations within the blood compartment” value in experiment [1] is “dose-dependently inhibited”; in experiment [2] (60 and 120 mg/kg PO 60 min before Con A (20 mg/kg IV), FIG. 2A), “dose-dependently inhibited”. Also, in experiment [2] (60 and 120 mg/kg PO before Con A, FIG. 2B), the “IFNγ (T-cell derived cytokine)” value is given as “significantly inhibited”. In experiment [2] (60 and 120 mg/kg PO before Con A, FIG. 2C), the “GM-CSF (T-cell derived cytokine)” value was “significantly inhibited”. Moreover, the “IL-12 (monocyte and/or macrophage derived cytokine)” value in experiment [2] (60 and 120 mg/kg PO before Con A, FIG. 3A) was “Statistically significant dose-dependent IL-12 reduction”. Besides, the “IL-1β (monocyte and/or macrophage derived cytokine)” value in experiment [2] (60 and 120 mg/kg PO before Con A, FIG. 3B) is listed as “trends for treatment effect”. In experiment [2] (60 and 120 mg/kg PO before Con A, FIG. 3C), the “IL-18 (monocyte and/or macrophage derived cytokine)” value is listed as “trends for treatment effect”. Moreover, the IL-5 result in experiment [2] (60 and 120 mg/kg PO before Con A, FIG. 4) is recorded as “unaffected”. The same compound yielded an IC50 in experiment [3] below 10 nM. Moreover, the JAK2/JAK1 in experiment [4] is given as above 10.
